Measured values published in patent US4314063A, “1-Ethyl-1,4,5,6-tetrahydro-6-(2-naphthyl)-4-oxo-nicotinic acid and lower alkyl esters thereof” (Hoffmann-La Roche Inc., priority 1981, dated 1982).
Counter-ions that a name gives are not always drawn.

Experiments:
Assay type in all cases: in vivo
[1] = LD50 (mouse), acute toxicity; conditions: in vivo, mouse
mouse = assay: LD50 (mouse), acute toxicity; conditions: in words
rats = assay: Turning rat test (rotation in rats with unilateral 6-OHDA lesion of the medial forebrain bundle); conditions: for minimal effective dose: Rattus norvegicus, ip, 1 h, i.p., active = more than 100 turns/hour, 5 rats per dose, read-out: Turning rat test minimum active dosage
Protocol: Female rats weighing 150 g are anaesthetised with pentobarbital (50 mg kg^-1 i.p.) and fixed in a stereotaxic apparatus (David Kopf). A unilateral (right side) injection into the MFB (medial forebrain bundle) of 6-OHDA (6-hydroxy-dopamine), 3 μg as base, dissolved in 4 μl of Ringer solution containing 0.02% ascorbic acid, is carried out through a stainless-steel cannula (diameter 0.3 mm) connected to a microsyringe. The liquid is injected at a speed of 1 μl min^-1 by means of a high precision infusion pump. In order to reach the MFB (medial forebrain bundle), the following coordinates are used: A=+3.8 mm, L (right)=0.9 mm, V=-3 mm according to the Atlas of Konig and Klippel.
After 3 weeks recovery period, the operated rats are injected with apomorphine, 1 mg kg^1- i.p. Those animals showing a regular contralateral (i.e., away from the lesioned side) turning, recorded automatically during 1 hour in a rotometer, are selected for further experiments. At least one week is allowed between each injection of screening compounds.
Drugs which induce rotation are dopamine receptor agonists. If the turning is contralateral (i.e., away from the lesioned side) the drugs are classified as "apomorphine-like", which indicates a direct dopamine-receptor stimulation (postsynaptic). The denervated striatum is more sensitive to dopamine receptor agonistes than the intact one. Agonists therefore affect the denervated striatum more than the intact one. This inbalance results in contralateral turning (rotation).
If the rotation is ipsilateral (i.e., towards the lesioned side), the drugs are classified as "amphetamine-like", which means that they release and/or block the reuptake of dopamine (presynaptic) from nerve terminals on the intact side, whereas they have little if any effect on the striatum with denervated dopamine neurons. The result of this inbalance is an ipsilateral turning.
The total number of ipsilateral or contralateral turns (full rotation around the vertical axes of the body) made by each rat, is automatically recorded over the time (usually 1 hour). 5 rats are injected for each dose and the mean of total turns per hour is determined.
A compound is said active, if it produces more than 100 turns/hour. If a drug induces rotation, but less than 100 turns/hour, it is indicated as slightly active. […] The results are expressed as: […]
Minimal effective dose--if the drug is active

| SMILES | LD50 ([1]; po) | LD50 compared with d-amphetamine and d-methamphetamine (mouse; versus d-amphetamine and d-methamphetamine) | LD50 compared with nomifensin (mouse; versus nomifensin) | minimal effective dose (rats) | strength of action compared with d-amphetamine and d-methamphetamine (rats; in words, versus d-amphetamine and d-methamphetamine, see Table I) | action compared with nomifensin (rats; in words, versus nomifensin, see Table I) | LD50 ([1]; iv) | LD50 ([1]; sc) |
| --- | --- | --- | --- | --- | --- | --- | --- | --- |
| CCn1cc(C(=O)O)c(=O)cc1-c1ccc2ccccc2c1 [1-ethyl-1,4-dihydro-6-(2-naphthyl)-4-oxonicotinic acid] | 170 mg/kg | substantially lower LD50 | about the same LD50 | 1 mg/kg | about the same strength of action | substantially superior to nomifensin | – | – |
| CN1Cc2c(N)cccc2C(c2ccccc2)C1 (stereo not drawn) [Nomifensin, 8-amino-1,2,3,4-tetrahydro-2-methyl-4-phenylisoquinoline] | 300 to 600 mg/kg | – | – | 3 mg/kg | – | – | – | – |
| C[C@H](N)Cc1ccccc1 [d-Amphetamine . 1/2 H2 SO4] | 35 mg/kg | – | – | 1 mg/kg | – | – | 14 mg/kg | 22 mg/kg |
| CN[C@@H](C)Cc1ccccc1 [d-Methamphetamine . HCl] | – | – | – | 1 mg/kg | – | – | 9.5 mg/kg | 14 mg/kg |
